The values below are quoted from earlier work in patent publication US4942167A, “Pharmaceutical compositions of piroxicam in aqueous solutions and process for their preparation” (Chiesi Farmaceutici S.p.A., priority 1988, dated 1990).

The conditions of this series: in words, background.

Molecules are shown by their SMILES.

Regarding `CN1C(C(=O)Nc2ccccn2)=C(O)c2ccccc2S1(=O)=O` [piroxicam, N-(2-pyridyl)-2-methyl-4-hydroxy-2H-1,2-benzothiazine-3-carboxyamido-1,1-dioxide], the water-solubility entry is listed as “poor”.
